Key:
[1] = test system: mortality caused by 3-nitropropionic acid (inhibitor of Complex II of the mitochondrial respiratory chain); experiment: Protection against mortality caused by 3-nitropropionic acid (Example 2; uridine, Na(DL-BHB), Na(D-BHB)); type: in vivo, Female CD-1 mice; conditions: 3-NP 60 mg/kg/day i.p., s.c. uridine 200 mg/kg t.i.d. and/or Na(DL-BHB) or Na(D-BHB) 328 mg/kg t.i.d.; for Median Survival: 12 day study; for % Survival: end of 12 day study, 10 mice per group
Experimental: Mitochondrial dysfunction was produced by daily administration of 3-nitropropionic acid (60 mg/kg/day) by intraperitoneal injection. Groups of mice also received saline (control), uridine, DL-BHB, D-BHB, and combinations of uridine and D-BHB and DL-BHB as indicated below. Both D- and DL-BHB were administered as the water soluble sodium salts: Na(D-BHB) (Toronto Research Chemicals, catalog #H833025) and Na(DL-BHB) (VWR International, catalog #200012-200).
• 1. Vehicle Control—0.9% saline b.i.d. • 2. Uridine 200 mg/kg t.i.d. • 3. Na (DL-BHB) 328 mg/kg t.i.d. • 4. Na (D-BHB) 328 mg/kg t.i.d. • 5. Uridine 200 mg/kg+Na (DL-BHB) 328 mg/kg t.i.d. • 6. Uridine 200 mg/kg+Na (D-BHB) 328 mg/kg t.i.d.
Survival times (median survival; the time point at which 50% of animals in a group had died) and percent survival at the end of the 12 day study were used to quantify and compare protective effects of the test agents.
Female CD-1 mice at approximately 16 weeks of age were divided into weight-matched groups of 10 mice each. All mice received daily intraperitoneal injections of 3-NP (60 mg/kg) in a volume of 0.01 ml per gram of body weight at 5 PM.
The therapeutic treatments were administered by subcutaneous injection in a volume of 0.01 ml/gram of body weight three times per day, at 7 AM and 12 PM and 4 PM. 3-NP was administered at 5 PM on each of the consecutive days of the experiment. Body weights were recorded each day to adjust drug doses as mice lost weight during repeated treatment with 3-NP. Body weight was graphed for the various groups of mice until the group size decreased below 3.

[2] = Pharmacokinetics of plasma uridine and D-BHB after subcutaneous administration; type: in vivo, Female CD-1 mice; conditions: mice
Experimental: Groups of 8 mice (Female CD-1 mice, approximately 16 weeks old) were treated with subcutaneous uridine or uridine plus Na(D-BHB) as indicated in the table below. D-BHB was administered as the water soluble sodium salt Na(D-BHB) (Toronto Research Chemicals, catalog #H833025
• 1. Group 1 (200 mg/kg Uridine+Na(D-BHB) received 10 mg/ml uridine and 49.26 mg/ml Na(D-BHB) (0.02 ml/g bw). • 2. Group 2 (300 mg/kg Uridine+Na(D-BHB) received 15 mg/ml uridine and 49.26 mg/ml Na(D-BHB) (0.02 ml/g bw). • 3. Group 3 (400 mg/kg Uridine+Na(D-BHB) received 20 mg/ml uridine and 49.26 mg/ml Na(D-BHB) (0.02 ml/g bw). • 4. Group 4 (400 mg/kg Uridine) received 20 mg/ml uridine (0.02 ml/g bw).
Blood samples were obtained from the retro-orbital plexus at time points of 15, 30, 60 and 120 minutes after drug injection. Two blood samples (<200 microliters) were collected from each mouse into heparinized polyethylene tubes, with 4 mice bled at 15 and 60 minutes, and the other 4 mice in a group were bled at 30 and 120 minutes. Plasma samples were obtained by centrifugation, and were deproteinized and analyzed for uridine and uracil by an LC/MS method. Plasma D-BHB was measured in the same samples by a commercial enzymatic color-change assay.
Rodents degrade uridine to uracil more rapidly and extensively than do humans, who have lower activities of the enzyme uridine phosphorylase. Therefore, it is important to take into account plasma uracil concentrations in rodents for optimum translation of rodent pharmacokinetic results to the human situation. The sum of uridine+uracil in rodents is a better reflection of plasma uridine equivalents than is uridine alone for translation to other animal models or to human dosing.

[3] = test system: mortality caused by 3-nitropropionic acid (inhibitor of Complex II of the mitochondrial respiratory chain); experiment: Protection against mortality caused by 3-nitropropionic acid at 65 or 70 mg/kg/day (Example 3; uridine, Na(D-BHB)); type: in vivo, Female CD-1 mice; conditions: s.c. uridine 200 mg/kg t.i.d. and/or Na(D-BHB) 985 mg/kg t.i.d.; for % Survival: end of study, 10 mice per group
Description: Subcutaneous administration of therapeutic agents is a suitable route of administration for emergency drugs that are intended to be used in people with traumatic brain injury, stroke or asphyxia, where the patient may not be capable of ingesting oral medications or may be in a situation where it is difficult to place an intravenous catheter. Subcutaneous drug administration is practical, but the composition must conform to volumes and osmolality values that are known to be compatible with this route of administration; excessively high osmolality can cause local edema, and volumes must be low enough for injection without problematic back pressure. Compositions comprising uridine, sodium beta-hydroxybutyrate and a combination of the two, with the osmolality restricted to a maximum of 800 milliosmoles/liter (a value known to be acceptable for subcutaneous fluid administration) were tested in a model of whole-body energy failure induced by daily intraperitoneal injections of 3-nitropropionic acid at two dose levels, 65 mg/kg/day and 70 mg/kg/day.
Survival times (median survival; the time point at which 50% of animals in a group had died) and percent survival at the end of a 13 day study were used to quantify and compare protective effects of the test agents.
Female CD-1 mice at approximately 16 weeks of age were divided into weight-matched groups of 10 mice each. All mice received daily intraperitoneal injections of 3-NP (65 mg/kg or 70 mg/kg) in a volume of 0.01 ml per gram of body weight at 5 PM.
The therapeutic treatments were administered by subcutaneous injection in a volume of 0.02 ml/gram of body weight three times per day, at 7 AM and 12 PM and 4 PM. 3-NP was administered at 5 PM on each of the consecutive days of the experiment. Body weights were recorded each day to adjust drug doses as mice lost weight during repeated treatment with 3-NP. D-BHB was administered as the water soluble sodium salt Na(D-BHB) (Toronto Research Chemicals, catalog #H833025.
1. Vehicle Control—0.9% saline t.i.d.
2. Uridine 200 mg/kg t.i.d.
3. Na(D-BHB) 985 mg/kg t.i.d.
4. Uridine 200 mg/kg+Na(D-BHB) 985 mg/kg t.i.d.

[4] = test system: mortality caused by 3-nitropropionic acid (inhibitor of Complex II of the mitochondrial respiratory chain); experiment: Protection against mortality caused by 3-nitropropionic acid (Example 1; uridine and MgBHB); type: in vivo, Female CD-1 mice; conditions: 3-NP 60 mg/kg/day i.p., s.c. uridine 300 mg/kg b.i.d. and/or MgBHB 300 mg/kg b.i.d.; for Median Survival: 13 day study; for % Survival: end of 13 day study, 10 mice per group
Description: 3-nitropropionic acid (3-NP) is an inhibitor of Complex II of the mitochondrial respiratory chain. Administration of 3-NP to experimental animals has been used as a model for mitochondrial diseases, Huntington's disease and pathological consequences of hypoxia. Daily dosing with 3-NP causes energy failure in the brain, heart and other tissues, resulting in mortality after several days. A 3-NP dosing regimen that caused 100% mortality in mice after approximately one week was selected for further evaluation of mortality, which is indicative of neuroprotective and cardioprotective effects, of compositions of the invention in a model of disorders caused by mitochondrial dysfunction. Survival times (median survival; the time point at which 50% of animals in a group had died) and percent survival at the end of the 13 day study were used to quantify protective effects of the test agents.
Female CD-1 mice at approximately 16 weeks of age were divided into weight-matched groups of 10 mice each. All mice received daily intraperitoneal injections of 3-NP (60 mg/kg) in a volume of 0.01 ml per gram of body weight. 3-NP was administered at 2 PM on each of the 13 consecutive days of the experiment. Body weights were recorded each day to adjust drug doses as mice lost weight during repeated treatment with 3-NP.
The comparative efficacy of uridine (VWR International) and the magnesium salt of racemic beta-hydroxybutyrate (magnesium β-hydroxybutyrate trihydrate; MgBHB·3H2O) (Nutra Planet) were assessed, as was the efficacy of a combination of uridine and MgBHB. All of the therapeutic treatments were administered by subcutaneous injection in a volume of 0.02 ml/gram of body weight twice per day, at 7 AM and 1 PM.
• 1. Vehicle Control—0.9% saline b.i.d. • 2. Uridine 300 mg/kg b.i.d. • 3. MgBHB 300 mg/kg b.i.d.

[5] = humans, cited from earlier work
[6] = s.c. Na(D-BHB) 985.1 mg/kg with uridine

| Compound | Median Survival [1] [days] | Median Survival ([1]; listed as Na(DL-BHB)) [days] | % Survival [1] | % Survival ([1]; listed as Na(DL-BHB)) [%] | Maximum D-BHB concentration in plasma [2, 6] | Tmax of plasma D-BHB [2, 6] [min] | Median Survival ([1]; listed as Na(D-BHB)) [days] | % Survival ([1]; listed as Na(D-BHB)) [%] | Median Survival ([3]; 3-NP 65 mg/kg/day i.p.) [days] | % Survival ([3]; 3-NP 65 mg/kg/day i.p.) | Median Survival ([3]; 3-NP 70 mg/kg/day i.p.) [days] | % Survival ([3]; 3-NP 70 mg/kg/day i.p.) | Median Survival [4] [days] | % Survival [4] | Tmax ([2]; female, CD-1, mouse, plasma, sc, s.c. uridine 200-400 mg/kg with or without Na(D-BHB) 985.1 mg/kg, read-out: Tmax of plasma uridine (and uridine+uracil)) [min] | Plasma uridine (and uridine+uracil) C max values ([2]; s.c. uridine 200, 300, 400 mg/kg) | Local tolerability of infusion into peripheral veins ([5]; infusion into accessible peripheral veins) | Dose-limiting toxicity during intravenous infusion ([5]; intravenous infusion) |
| --- | --- | --- | --- | --- | --- | --- | --- | --- | --- | --- | --- | --- | --- | --- | --- | --- | --- | --- |
| CC(O)CC(=O)[O-].[Na+] (racemic) [Na (DL-BHB)] | 8 | 7.5 | 20% (2/10) | 20 | – | – | – | – | – | – | – | – | – | – | – | – | – | – |
| C[C@@H](O)CC(=O)[O-].[Na+] [Na (D-BHB)] | 7.5 | – | 10% (1/10) | – | approximately 3 millimolar | 15 | 8 | 10 | 10.5 | 40% (4/10) | 6 | 0% (0/10) | – | – | – | – | – | – |
| magnesium β-hydroxybutyrate trihydrate [MgBHB] | – | – | – | – | – | – | – | – | – | – | – | – | 10 | 20% (2/10) | – | – | – | – |
| O=c1ccn([C@@H]2O[C@H](CO)[C@@H](O)[C@H]2O)c(=O)[nH]1 [Uridine, uridine] | 12 | – | – | – | – | – | – | – | 9 | 30% (3/10) | 6.5 | 10% (1/10) | 12 | 40% (4/10) | 15 to 30 | dose-dependent | caused local phlebitis | Hyperthermia was encountered as a dose-limiting toxicity |
